According to patent publication US6140368A, “Naphthols useful in antiviral methods” (The Regents of the University of California, priority 1998, dated 2000):
pIC50: −log10 of the molar value.

target: HIV reverse transcriptase (Human immunodeficiency virus type 1 group M subtype B, UniProt P03366); test: Reverse transcriptase scintillation proximity assay (Example 4, Table 2); assay type: biochemical; settings: 10 μM inhibitor; relative to dimethyl sulfoxide = 100%; 3 min, 10 µM
Experimental: Reverse transcriptase ("RT") activity is measured using a scintillation proximity assay kit available from Amersham Life Sciences, Inc., which uses a biotin/streptavidin bead capture system. RNA-dependent polymerase activity is measured using purified […] and a synthetic 17mer/50mer RNA-DNA template-primer containing biotin at the 5' end of the DNA. The template-primer, buffer, dNTP, and inhibitor are incubated for 10 minutes at 37° C. before the RT is added. The final 100 μl reaction mixture contains: 39 nm of template primer, buffer (40 mM tris HCl at pH 8.0, 10 mM MgCl2, 60 mM KCl, 10 mM dithiothreitol); 75 nM of each dNTP except dTTP; 25 nM dTTP and 35 nM tritium labeled d*TTP; 10 μM inhibitor; and 1.0-2.0 μg of RT. After three minute incubation, the reaction is quenched with 40 μl of 0.56M EDTA. Then 10 μl of streptavidin SPA beads (in suspension) are added and incubated at 37° C. for 10 minutes. Finally, 850 μl of a buffer containing 10 mM Tris HCl pH 7.4 and 0.15M NaCl is added. The signal is produced by biotinylated polymers incorporating d*TTP binding to the streptavidin beads which stimulate the scintillant. The amount of d*TTP incorporated in the polymer is measured with a scintillation counter.
Compounds showing good inhibition will give a low number of counts/min (cpm). This number is related to a standard, dimethyl sulfoxide, which is given an arbitrary 100% relative activity. All cpm data in a single run are given a percent of this standard.

Row | Structure (SMILES) | % RT activity remaining at 10 μM
1 | O=C(O)c1ccc(N=Nc2c(S(=O)(=O)O)cc3cc(NC(=O)c4ccc(C(=O)Nc5ccc6c(O)c(N=Nc7ccc(C(=O)O)cc7)c(S(=O)(=O)O)cc6c5)cc4)ccc3c2O)cc1 [Compound 162] | 5.9%
2 | O=C(O)c1ccc(N=Nc2c(S(=O)(=O)O)cc3cc(NC(=O)c4ccc(C(=O)Nc5ccc6c(O)c(N=Nc7ccc(C(=O)O)cc7)c(S(=O)(=O)O)cc6c5)cc4)ccc3c2O)cc1 [Compound 169] | .15%

same assay, conditions: 0.05 h, 10 μM inhibitor; relative to dimethyl sulfoxide = 100%; read-out: % RT activity remaining at 10 μM

Row | Structure (SMILES) | remaining activity at 10 µM [%]
3 | O=C(O)CCCCCc1ccc(N=Nc2c(S(=O)(=O)O)cc3cc(NC(=O)c4cc(=O)cc(C(=O)Nc5ccc6c(O)c(N=Nc7ccc(CCCCCC(=O)O)cc7)c(S(=O)(=O)O)cc6c5)o4)ccc3c2O)cc1 [Compound 135] | 0.16
4 | O=C(O)/C=C/c1ccc(N=Nc2c(S(=O)(=O)O)cc3cc(NC(=O)c4cc(=O)cc(C(=O)Nc5ccc6c(O)c(N=Nc7ccc(/C=C/C(=O)O)cc7)c(S(=O)(=O)O)cc6c5)o4)ccc3c2O)cc1 [Compound 137] | 0.53
5 | COc1cc(C(=O)O)ccc1N=Nc1c(S(=O)(=O)O)cc2cc(NC(=O)c3cc(=O)cc(C(=O)Nc4ccc5c(O)c(N=Nc6ccc(C(=O)O)cc6OC)c(S(=O)(=O)O)cc5c4)o3)ccc2c1O [Compound 139] | 0.34
6 | O=C(O)c1cc(N=Nc2c(S(=O)(=O)O)cc3cc(NC(=O)c4cc(=O)cc(C(=O)Nc5ccc6c(O)c(N=Nc7cc(C(=O)O)cc(C(=O)O)c7)c(S(=O)(=O)O)cc6c5)o4)ccc3c2O)cc(C(=O)O)c1 [Compound 143] | 0.23
7 | Cc1cc(C(=O)O)ccc1N=Nc1c(S(=O)(=O)O)cc2cc(NC(=O)c3cc(=O)cc(C(=O)Nc4ccc5c(O)c(N=Nc6ccc(C(=O)O)cc6C)c(S(=O)(=O)O)cc5c4)o3)ccc2c1O [Compound 144] | 0.26
8 | O=C(Nc1ccc2c(O)cc(S(=O)(=O)O)cc2c1)c1cc(O)cc(C(=O)Nc2ccc3c(O)cc(S(=O)(=O)O)cc3c2)n1 [Compound 145] | 47
9 | O=C(O)Cc1ccc(N=Nc2c(S(=O)(=O)O)cc3cc(NC(=O)c4cc(O)cc(C(=O)Nc5ccc6c(O)c(N=Nc7ccc(CC(=O)O)cc7)c(S(=O)(=O)O)cc6c5)n4)ccc3c2O)cc1 [Compound 147] | 0.3
10 | O=C(O)c1cccc(N=Nc2c(S(=O)(=O)O)cc3cc(NC(=O)c4cc(O)cc(C(=O)Nc5ccc6c(O)c(N=Nc7cccc(C(=O)O)c7)c(S(=O)(=O)O)cc6c5)n4)ccc3c2O)c1 [Compound 150] | 0.6
11 | O=C(O)/C=C/c1ccc(N=Nc2c(S(=O)(=O)O)cc3cc(NC(=O)c4cc(O)cc(C(=O)Nc5ccc6c(O)c(N=Nc7ccc(/C=C/C(=O)O)cc7)c(S(=O)(=O)O)cc6c5)n4)ccc3c2O)cc1 [Compound 151] | 0.2
12 | COc1cc(C(=O)O)ccc1N=Nc1c(S(=O)(=O)O)cc2cc(NC(=O)c3cc(O)cc(C(=O)Nc4ccc5c(O)c(N=Nc6ccc(C(=O)O)cc6OC)c(S(=O)(=O)O)cc5c4)n3)ccc2c1O [Compound 153] | 0.15
13 | COc1cc(N=Nc2c(S(=O)(=O)O)cc3cc(NC(=O)c4cc(O)cc(C(=O)Nc5ccc6c(O)c(N=Nc7cc(OC)c(OC)c(OC)c7C(=O)O)c(S(=O)(=O)O)cc6c5)n4)ccc3c2O)c(C(=O)O)c(OC)c1OC [Compound 156] | 15
14 | O=C(Nc1ccc2c(O)cc(S(=O)(=O)O)cc2c1)c1ccc(C(=O)Nc2ccc3c(O)cc(S(=O)(=O)O)cc3c2)cc1 [Compound 160] | 74
15 | O=C(O)/C=C/c1ccc(N=Nc2c(S(=O)(=O)O)cc3cc(NC(=O)c4ccc(C(=O)Nc5ccc6c(O)c(N=Nc7ccc(/C=C/C(=O)O)cc7)c(S(=O)(=O)O)cc6c5)cc4)ccc3c2O)cc1 [Compound 161] | 25
16 | O=C(O)Cc1ccc(N=Nc2c(S(=O)(=O)O)cc3cc(NC(=O)c4ccc(C(=O)Nc5ccc6c(O)c(N=Nc7ccc(CC(=O)O)cc7)c(S(=O)(=O)O)cc6c5)cc4)ccc3c2O)cc1 [Compound 163] | 0.1
17 | O=C(O)CCc1ccc(N=Nc2c(S(=O)(=O)O)cc3cc(NC(=O)c4ccc(C(=O)Nc5ccc6c(O)c(N=Nc7ccc(CCC(=O)O)cc7)c(S(=O)(=O)O)cc6c5)cc4)ccc3c2O)cc1 [Compound 164] | 0.15
18 | O=C(O)CCCc1ccc(N=Nc2c(S(=O)(=O)O)cc3cc(NC(=O)c4ccc(C(=O)Nc5ccc6c(O)c(N=Nc7ccc(CCCC(=O)O)cc7)c(S(=O)(=O)O)cc6c5)cc4)ccc3c2O)cc1 [Compound 165] | 3.7
19 | O=C(O)CC(C(=O)O)c1ccc(N=Nc2c(S(=O)(=O)O)cc3cc(NC(=O)c4ccc(C(=O)Nc5ccc6c(O)c(N=Nc7ccc(C(CC(=O)O)C(=O)O)cc7)c(S(=O)(=O)O)cc6c5)cc4)ccc3c2O)cc1 (stereo not shown) [Compound 166] | 0.14

Row | Structure (SMILES) | remaining activity at 10 µM [%]
20 | COc1cc(C(=O)O)ccc1N=Nc1c(S(=O)(=O)O)cc2cc(NC(=O)c3ccc(C(=O)Nc4ccc5c(O)c(N=Nc6ccc(C(=O)O)cc6OC)c(S(=O)(=O)O)cc5c4)cc3)ccc2c1O [Compound 167] | 0.26
21 | Cc1cc(C(=O)O)ccc1N=Nc1c(S(=O)(=O)O)cc2cc(NC(=O)c3ccc(C(=O)Nc4ccc5c(O)c(N=Nc6ccc(C(=O)O)cc6C)c(S(=O)(=O)O)cc5c4)cc3)ccc2c1O [Compound 168] | 0.5
22 | O=C(O)c1cccc(N=Nc2c(S(=O)(=O)O)cc3cc(NC(=O)c4ccc(C(=O)Nc5ccc6c(O)c(N=Nc7cccc(C(=O)O)c7)c(S(=O)(=O)O)cc6c5)cc4)ccc3c2O)c1 [Compound 170] | 0.1
23 | O=C(Nc1ccc2c(O)c(N=Nc3cc(F)c(F)c(C(=O)O)c3F)c(S(=O)(=O)O)cc2c1)c1ccc(C(=O)Nc2ccc3c(O)c(N=Nc4cc(F)c(F)c(C(=O)O)c4F)c(S(=O)(=O)O)cc3c2)cc1 [Compound 171] | 0.15
24 | O=C(O)c1ccc(Cl)c(N=Nc2c(S(=O)(=O)O)cc3cc(NC(=O)c4ccc(C(=O)Nc5ccc6c(O)c(N=Nc7cc(C(=O)O)ccc7Cl)c(S(=O)(=O)O)cc6c5)cc4)ccc3c2O)c1 [Compound 172] | 0.08
25 | O=C(O)c1ccc(C(=O)O)c(N=Nc2c(S(=O)(=O)O)cc3cc(NC(=O)c4ccc(C(=O)Nc5ccc6c(O)c(N=Nc7cc(C(=O)O)ccc7C(=O)O)c(S(=O)(=O)O)cc6c5)cc4)ccc3c2O)c1 [Compound 173] | 27
26 | CC(=O)Nc1ccc(N=Nc2c(S(=O)(=O)O)cc3cc(NC(=O)c4ccc(C(=O)Nc5ccc6c(O)c(N=Nc7ccc(NC(C)=O)cc7)c(S(=O)(=O)O)cc6c5)cc4)ccc3c2O)cc1 [Compound 174] | 28
27 | COc1cc(N=Nc2c(S(=O)(=O)O)cc3cc(NC(=O)c4ccc(C(=O)Nc5ccc6c(O)c(N=Nc7cc(OC)c(OC)c(OC)c7)c(S(=O)(=O)O)cc6c5)cc4)ccc3c2O)cc(OC)c1OC [Compound 175] | 62
28 | COc1ccc(N=Nc2c(S(=O)(=O)O)cc3cc(NC(=O)c4ccc(C(=O)Nc5ccc6c(O)c(N=Nc7ccc(OC)cc7)c(S(=O)(=O)O)cc6c5)cc4)ccc3c2O)cc1 [Compound 176] | 60
29 | COc1cc(C(=O)O)c(N=Nc2c(S(=O)(=O)O)cc3cc(NC(=O)c4ccc(C(=O)Nc5ccc6c(O)c(N=Nc7c(C(=O)O)cc(OC)c(OC)c7OC)c(S(=O)(=O)O)cc6c5)cc4)ccc3c2O)c(OC)c1OC [Compound 177] | 0.17
30 | O=C(O)c1cc(N=Nc2c(S(=O)(=O)O)cc3cc(NC(=O)c4ccc(C(=O)Nc5ccc6c(O)c(N=Nc7cc(C(=O)O)cc(C(=O)O)c7)c(S(=O)(=O)O)cc6c5)cc4)ccc3c2O)cc(C(=O)O)c1 [Compound 178] | 91
31 | COc1cc(N=Nc2c(S(=O)(=O)O)cc3cc(NC(=O)c4ccc(C(=O)Nc5ccc6c(O)c(N=Nc7cc(OC)c(OC)cc7C(=O)O)c(S(=O)(=O)O)cc6c5)cc4)ccc3c2O)c(C(=O)O)cc1OC [Compound 179] | 7.5
32 | Cc1ccc(CO)cc1N=Nc1c(S(=O)(=O)O)cc2cc(NC(=O)c3ccc(C(=O)Nc4ccc5c(O)c(N=Nc6cc(CO)ccc6C)c(S(=O)(=O)O)cc5c4)cc3)ccc2c1O [Compound 180] | 45
33 | O=C(Nc1ccc2c(O)c(N=Nc3ccc(Cl)cc3)c(S(=O)(=O)O)cc2c1)c1ccc(C(=O)Nc2ccc3c(O)c(N=Nc4ccc(Cl)cc4)c(S(=O)(=O)O)cc3c2)cc1 [Compound 181] | 43
34 | O=C(Nc1ccc2c(O)c(N=Nc3ccc(Br)cc3Br)c(S(=O)(=O)O)cc2c1)c1ccc(C(=O)Nc2ccc3c(O)c(N=Nc4ccc(Br)cc4Br)c(S(=O)(=O)O)cc3c2)cc1 [Compound 182] | 35
35 | Cc1cc2nc(N=Nc3c(S(=O)(=O)O)cc4cc(NC(=O)c5ccc(C(=O)Nc6ccc7c(O)c(N=Nc8nc9cc(C)c(C)cc9[nH]8)c(S(=O)(=O)O)cc7c6)cc5)ccc4c3O)[nH]c2cc1C [Compound 183] | 36

same assay, conditions: read-out: IC50 (RT activity)

Row | Structure (SMILES) | pIC50
36 | O=C(Nc1ccc2c(O)c(N=Nc3ccc(-c4nnn[nH]4)cc3)c(S(=O)(=O)O)cc2c1)Nc1ccc2c(O)c(N=Nc3ccc(-c4nnn[nH]4)cc3)c(S(=O)(=O)O)cc2c1 [Compound 159] | 6.66
37 | O=c1c(Nc2ccc3c(O)cc(S(=O)(=O)O)cc3c2)c(Nc2ccc3c(O)cc(S(=O)(=O)O)cc3c2)c1=O [Compound 184] | 6.00
